Assays:
[1] = tested on: proMMP-9 production by human TNFα stimulated THP-1 cell; test: Action of human TNFα stimulated THP-1 cell on proMMP-9 production (ELISA of culture supernatant); assay type: cell-based; settings: THP-1 cells, human TNFα 10 ng/mL, 24 hr; IC50 from 10, 100 and 1,000 nmol/L; read-out: Experimental Example 1 proMMP-9 production suppression (IC50)
Procedure: Action of Human TNFα Stimulated THP-1 Cell on proMMP-9 Production
(§1) THP-1 cell (human monocytic leukemia cell line) was adjusted to 1×10^7 cells/mL in a culture medium (10% fetal bovine serum/RPMI1640 medium), and dispensed to a 96 well multiplate. This was equilibrated under the conditions of 37° C./5% CO2, and a culture medium containing human TNFα (final concentration 10 ng/mL) and a test compound was added thereto. After incubation under the conditions of 37° C./5% CO2 for 24 hr, the culture medium was centrifugated and the culture supernatant was collected, which was subjected to the following measurement.
Quantification of proMMP-9 in Culture Supernatant
The proMMP-9 concentration of the collected culture supernatant was quantified using a commercially available measurement reagent (manufactured by GE Healthcare, MMP-9, Human, Biotrak ELISA System).
Calculation of proMMP-9 Suppression Rate
The proMMP-9 suppression rate of the test compound was calculated from the following formula: % suppression=100−((Test−Min)/(Max−Min)×100) wherein Max is proMMP-9 concentration of culture supernatant induced by stimulation with human TNFα, without addition of a test compound (added with solvent alone) • Min is proMMP-9 concentration of culture supernatant without addition of a test compound (added with solvent alone) and without stimulation with human TNFα, and • Test is proMMP-9 concentration of culture supernatant induced by stimulation with human TNFα when a test compound is added.
Furthermore, the concentration of the test compound necessary for suppressing proMMP-9 production by human TNFα stimulated THP-1 cell by 50% (IC50 value) was calculated from 3 points of proMMP-9 suppression rate at test compound concentrations of 10, 100 and 1,000 nmol/L.

[2] = tested on: proMMP-2 production by THP-1 cell; test: Action of THP-1 cell on hemostatic type proMMP-2 production (ELISA of culture supernatant); assay type: cell-based, human; settings: THP-1 cells, 24 hr
Procedure: Action of THP-1 Cell on Hemostatic Type proMMP-2 Production
as §1, with “containing” for “containing human TNFα (final concentration 10 ng/mL) and”
Quantification of proMMP-2 in Culture Supernatant
The proMMP-2 concentration of the collected culture supernatant was quantified using a commercially available measurement reagent (manufactured by GE Healthcare, MMP-2, Human, Biotrak ELISA System).
Calculation of proMMP-2 Suppression Rate
The proMMP-2 suppression rate of the test compound was calculated from the following formula: % suppress=100−((Test/Cont)×100). wherein Cont is proMMP-2 concentration of culture supernatant without addition of a test compound (added with solvent alone) and Test is proMMP-2 concentration of culture supernatant with addition of a test compound.

[3] = tested on: rat dinitrobenzene-induced colitis model; test: Suppressive action on large intestine weight increase of rat dinitrobenzene-induced colitis model; assay type: in vivo; settings: Wistar rat, 30 mg/kg oral once a day to day 7, measured day 8
Procedure: Suppressive Action on Large Intestine Weight Increase of Rat Dinitrobenzene-Induced Colitis Model
A dinitrobenzene solution (30 mg/0.1 mL) was injected into the large intestine of anesthetized rats (Wistar, male, 6-week-old). A test compound was orally administered once a day from the previous day of the dinitrobenzene injection to day 7 at a dose of 30 mg/kg. On day 8, the large intestine was isolated from euthanized rats, and the wet weight thereof was measured. The large intestine weight was amended to the weight per 100 g body weight of the rats on day 8.

[4] = tested on: rat monoiodoacetic acid-induced osteoarthritis model; test: Suppressive action on articular joints injury of rat monoiodoacetic acid-induced osteoarthritis model; assay type: in vivo; settings: LEW rat
Procedure: Suppressive Action on Articular Joints Injury of Rat Monoiodoacetic Acid-Induced Osteoarthritis Model
Monoiodoacetic acid solution (0.3 mg/25 μL) was injected into the right hindpaw knee joint cavity of anesthetized rats (LEW, male, 7-week-old). […] On day 7, right hindpaw knee joint was taken from euthanized rats, and fixed with 10% neutral formalin solution. A pathology specimen of knee joint was prepared, stained with Hematoxylin Eosin and Safranine O, and the state of joint cartilage injury was scored under microscopic observation. For articular joint injury scores, changes in each pathological finding in medial condyle of femur and medial condyle of tibia (cartilage surface tuberosity, erosion/ulcer/fibrillation, chondrocyte disorganization/disappearance/hypertrophy, reduction of Safranine staining) were divided into mild, moderate and severe according to the method of Kobayashi et al. (Kobayashi K et al. J. Vet. Med. Sci. 65, 1195 1199 2003), and indicated in the scores of 1, 2 and 3 and totaled. Furthermore, an average of the score of medial condyle of femur and that of medial condyle of tibia was determined and used as an articular joint injury score.

[5] = tested on: rat adjuvant induced arthritis model; test: Suppressive action on hindpaw edema of rat adjuvant induced arthritis model; assay type: in vivo; settings: LEW rat, difference of hindpaw volume day 15 vs day 21, in mL (unit assumed)
Procedure: Suppressive Action on Hindpaw Edema of Rat Adjuvant Induced Arthritis Model
Anesthetized rats (LEW, male, 6-week-old) were immunized with M. Butyricum (5 mg/mL) at a dose of 0.1 mL/body by subcutaneous administration from the tail root. […] The test compound was orally administered once a day from immediately after allocation on day 15 to day 20 at doses of 3 and 30 mg/kg, and the hindpaw volume was measured again on day 21. The amount of hindpaw edema was the difference in the amount between hindpaw volume on day 15 and that on day 21.

[6] = 3 mg/kg oral once a day to day 6, scored day 7
[7] = 10 mg/kg oral once a day to day 6, scored day 7

| Compound | IC50 [1] | Experimental Example 2 proMMP-2 production suppression (% suppression, 10 μM) [2] | also measured |
| --- | --- | --- | --- |
| Cc1ccc(N2CCN(C(=O)c3c(F)cc(N4CCOC4=O)cc3F)CC2)c(C)c1 [Example 1, 3-{4-[4-(2,4-dimethylphenyl)piperazine-1-carbonyl]-3,5-difluorophenyl}oxazolidin-2-one] | 44 nM | 17.4% | – |
| Cc1ccc(C(=O)C2CCN(C(=O)c3ccc(N4CCOC4=O)nc3)CC2)cc1 [Example 42, 3-{5-[4-(4-methylbenzoyl)piperidine-1-carbonyl]pyridin-2-yl}oxazolidin-2-one] | – | – | articular joint injury score of compound administration group [4, 7]: 3.8 ± 0.7 |
| Cc1cnc(N2CCN(C(=O)c3ccc(N4C(=O)OC[C@H]4C)cc3S(C)(=O)=O)CC2)c(C)c1 [Example 81, (R)-3-{4-[4-(3,5-dimethylpyridin-2-yl)piperazine-1-carbonyl]-3-methanesulfonylphenyl}-4-methyloxazolidin-2-one] | – | – | articular joint injury score of compound administration group [4, 7]: 4.4 ± 0.4 |
| Cc1cnc(N2CCN(C(=O)c3ccc(N4C(=O)OC[C@H]4C)nc3)CC2)c(C)c1.Cl.Cl [Example 109, (R)-3-{5-[4-(3,5-dimethylpyridin-2-yl)piperazine-1-carbonyl]pyridin-2-yl}-4-methyloxazolidin-2-one 2hydrochloride] | – | – | articular joint injury score of compound administration group [4, 6]: 4.1 ± 0.4 |

Further lines, with some results ahead:

| IC50 [1] | Compound | Experimental Example 2 proMMP-2 production suppression (% suppression, 10 μM) [2] | also measured |
| --- | --- | --- | --- |
| 59 nM | Cc1ccc(N2CCN(C(=O)c3ccc(N4CCOC4=O)cc3C)CC2)c(C)c1 [Example 6, 3-{4-[4-(2,4-dimethylphenyl)piperazine-1-carbonyl]-3-methylphenyl}oxazolidin-2-one] | 12.6% | – |
| 48 nM | Cc1ccc(N2CCN(C(=O)c3ccc(N4CCOC4=O)cc3)CC2)c(C)c1 [Example 8, 3-{4-[4-(2,4-dimethylphenyl)piperazine-1-carbonyl]phenyl}oxazolidin-2-one] | 11.6% | large intestine weight (g/100 g body weight) [3]: 0.457 ± 0.031 g/100 g body weight; articular joint injury score of compound administration group [4, 6]: 4.4 ± 0.5; hindpaw edema volume ([5]; 3 mg/kg oral once a day day 15 to day 20): 0.27 ± 0.17; hindpaw edema volume ([5]; 30 mg/kg oral once a day day 15 to day 20): 0.20 ± 0.18 |
| 40 nM | Cc1ccc(N2CCN(C(=O)c3ccc(N4CCOC4=O)cc3S(C)(=O)=O)CC2)c(C)c1 [Example 11, 3-{4-[4-(2,4-dimethylphenyl)piperazine-1-carbonyl]-3-methanesulfonylphenyl}oxazolidin-2-one] | 12.4% | – |
| 11 nM | Cc1ccc(N2CCN(C(=O)c3ccc(N4C(=O)OC[C@H]4CO)cc3S(C)(=O)=O)CC2)c(C)c1 [Example 19, (R)-3-{4-[4-(2,4-dimethylphenyl)piperazine-1-carbonyl]-3-methanesulfonylphenyl}-4-hydroxymethyloxazolidin-2-one] | 22.5% | – |

Reference: patent US8354401B2, “Oxazolidinone amide aromatic compounds for supressing MMP-9 production” (Mitsubishi Tanabe Pharma Corporation, priority 2008, dated 2013)
